Reference: BindingDB's records for doi:10.1016/s0006-2952(96)00656-9 (Institute of Parasitology of Mcgill University, 1997)

Target: ATP-dependent translocase ABCB1 (Homo sapiens, UniProt P08183)
Assay: TP_TRANSPORTER: binding in plasma membranes from CEM/VLB1.0 cells

ATP-dependent translocase ABCB1, sequence (P08183 whole entry): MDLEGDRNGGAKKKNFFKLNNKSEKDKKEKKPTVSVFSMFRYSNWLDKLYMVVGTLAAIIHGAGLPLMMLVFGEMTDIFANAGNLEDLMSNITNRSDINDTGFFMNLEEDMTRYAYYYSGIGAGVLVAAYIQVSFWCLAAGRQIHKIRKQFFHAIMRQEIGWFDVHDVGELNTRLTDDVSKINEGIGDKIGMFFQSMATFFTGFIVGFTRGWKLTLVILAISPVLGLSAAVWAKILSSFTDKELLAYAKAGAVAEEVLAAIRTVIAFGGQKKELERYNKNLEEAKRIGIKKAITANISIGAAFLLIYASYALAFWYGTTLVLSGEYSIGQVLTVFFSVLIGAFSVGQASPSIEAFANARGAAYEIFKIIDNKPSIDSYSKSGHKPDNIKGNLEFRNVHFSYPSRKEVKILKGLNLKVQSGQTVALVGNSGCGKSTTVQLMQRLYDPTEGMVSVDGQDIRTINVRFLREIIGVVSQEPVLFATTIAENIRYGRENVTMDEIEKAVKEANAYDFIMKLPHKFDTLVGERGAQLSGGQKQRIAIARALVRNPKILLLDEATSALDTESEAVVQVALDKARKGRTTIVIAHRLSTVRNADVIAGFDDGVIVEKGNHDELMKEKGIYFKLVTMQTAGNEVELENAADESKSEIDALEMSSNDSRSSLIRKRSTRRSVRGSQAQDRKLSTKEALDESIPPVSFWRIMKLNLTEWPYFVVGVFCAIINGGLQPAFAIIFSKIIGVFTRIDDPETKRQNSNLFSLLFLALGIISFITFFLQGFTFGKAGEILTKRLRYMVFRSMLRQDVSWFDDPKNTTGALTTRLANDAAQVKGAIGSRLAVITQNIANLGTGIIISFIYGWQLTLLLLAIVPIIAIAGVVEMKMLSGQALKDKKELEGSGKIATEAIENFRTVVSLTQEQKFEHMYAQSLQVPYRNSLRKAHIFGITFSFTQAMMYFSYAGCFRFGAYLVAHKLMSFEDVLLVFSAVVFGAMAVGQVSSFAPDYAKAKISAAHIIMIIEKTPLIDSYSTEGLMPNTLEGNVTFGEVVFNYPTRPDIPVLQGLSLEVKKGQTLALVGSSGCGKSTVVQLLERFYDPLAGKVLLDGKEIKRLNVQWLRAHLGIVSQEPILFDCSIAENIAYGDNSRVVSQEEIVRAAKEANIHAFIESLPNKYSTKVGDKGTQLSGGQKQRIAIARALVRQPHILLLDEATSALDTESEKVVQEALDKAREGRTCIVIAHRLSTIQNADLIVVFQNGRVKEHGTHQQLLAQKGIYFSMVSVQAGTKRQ

Kd: 11 nM
Compound: CC[C@H](C)[C@H]1O[C@]2(CC[C@@H]1C)C[C@@H]1C[C@@H](C/C=C(\C)[C@@H](O[C@H]3C[C@H](OC)[C@@H](O[C@H]4C[C@H](OC)[C@@H](O)[C@H](C)O4)[C@H](C)O3)[C@@H](C)/C=C/C=C3\CO[C@@H]4[C@H](O)C(C)=C[C@@H](C(=O)O1)[C@]34O)O2 [ABAMECTIN]
